Reference: ChEMBL document CHEMBL3879911, “Heteroaryl compounds useful as inhibitors of E1 activating enzymes” (2008)

What follows are molecules tested against T1, NEDD8 activating enzyme (Homo sapiens, UniProt Q8TBC4) (assay: Inhibition of recombinant human NAEalpha/N-terminal His-tagged NAEbeta expressed in baculovirus infected insect Sf9 cells using N-terminal FLAG tagged Nedd8 as substrate incubated for 105 mins in presence of N-terminal GST-tagged Ubc12 by FRET assay).
T1 sequence (Q8TBC4 whole entry): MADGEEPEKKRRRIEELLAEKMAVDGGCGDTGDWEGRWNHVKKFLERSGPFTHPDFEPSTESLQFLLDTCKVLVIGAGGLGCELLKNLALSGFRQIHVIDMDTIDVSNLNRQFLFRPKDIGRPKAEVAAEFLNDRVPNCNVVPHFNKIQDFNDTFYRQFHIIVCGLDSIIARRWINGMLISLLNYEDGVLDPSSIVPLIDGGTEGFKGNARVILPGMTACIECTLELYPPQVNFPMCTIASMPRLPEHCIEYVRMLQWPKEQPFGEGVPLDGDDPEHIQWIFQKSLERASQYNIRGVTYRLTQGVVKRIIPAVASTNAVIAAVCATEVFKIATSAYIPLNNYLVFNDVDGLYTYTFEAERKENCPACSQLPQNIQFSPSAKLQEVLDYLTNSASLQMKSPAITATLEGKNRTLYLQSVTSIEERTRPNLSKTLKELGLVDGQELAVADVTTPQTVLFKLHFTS
T1 sequence (Q13564 whole entry): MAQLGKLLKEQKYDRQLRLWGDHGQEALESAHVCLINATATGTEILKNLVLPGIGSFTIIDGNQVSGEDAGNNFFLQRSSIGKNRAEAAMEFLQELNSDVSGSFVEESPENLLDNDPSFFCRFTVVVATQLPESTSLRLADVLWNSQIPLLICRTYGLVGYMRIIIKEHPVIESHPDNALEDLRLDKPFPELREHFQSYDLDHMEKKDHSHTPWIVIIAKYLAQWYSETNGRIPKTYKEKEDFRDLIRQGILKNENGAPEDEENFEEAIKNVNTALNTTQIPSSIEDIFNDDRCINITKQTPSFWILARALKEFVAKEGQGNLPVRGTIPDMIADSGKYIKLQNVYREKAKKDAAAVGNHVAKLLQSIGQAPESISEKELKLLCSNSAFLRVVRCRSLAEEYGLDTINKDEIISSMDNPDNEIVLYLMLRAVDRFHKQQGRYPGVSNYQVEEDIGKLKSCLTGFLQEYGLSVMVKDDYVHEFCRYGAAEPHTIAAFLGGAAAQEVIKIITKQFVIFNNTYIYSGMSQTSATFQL

| SMILES | IC50 [nM] |
| --- | --- |
| NS(=O)(=O)OC[C@@H]1C[C@@H](Nc2ncnc3[nH]c(-c4cccc5c4oc4ccccc45)nc23)C[C@@H]1O | ≤ 500 |
| Cn1c(-c2ccccc2)nc2c(N[C@@H]3C[C@@H](COS(N)(=O)=O)[C@@H](O)C3)ncnc21 | ≤ 500 |
| CN(Cc1ccccc1)c1cc(N[C@@H]2C[C@H](COS(N)(=O)=O)[C@@H](O)[C@H]2O)ncn1 | > 10000 |
| CN(c1ncnc2c1nc(-c1ccccc1)n2C)[C@@H]1C[C@@H](COS(N)(=O)=O)[C@@H](O)C1 | 500 to 10000 |
| CO[C@H]1Cc2ccccc2[C@H]1Nc1ncnc(N[C@@H]2C[C@H](COS(N)(=O)=O)[C@@H](O)[C@H]2O)n1 | ≤ 500 |
| NS(=O)(=O)OC[C@@H]1C[C@@H](Nc2cc(N[C@H]3CCc4ccccc43)ncn2)[C@H](O)[C@@H]1O | ≤ 500 |
| NS(=O)(=O)OC[C@@H]1C[C@@H](Nc2ncnc3oc(-c4ccccc4)nc23)C[C@@H]1O | ≤ 500 |
| NS(=O)(=O)OC[C@H]1C[C@@H](Nc2ccnc(NCc3ccccc3)n2)[C@H](O)[C@@H]1O | 500 to 10000 |
| NS(=O)(=O)OC[C@@H]1C[C@@H](Oc2ccnc3[nH]c(-c4cccc5ccccc45)nc23)C[C@@H]1O | ≤ 500 |
| NS(=O)(=O)OC[C@H]1C[C@@H](Nc2cc(NCC3CCCCC3)ncn2)[C@H](O)[C@@H]1O | ≤ 500 |
| NS(=O)(=O)OC[C@H]1C[C@@H](Nc2cc(N[C@H]3CCc4c(Cl)cccc43)ncn2)[C@H](O)[C@@H]1O | ≤ 500 |
| NS(=O)(=O)OC[C@@H]1C[C@@H](Nc2ncnc3[nH]c(-c4ccccc4C(F)(F)F)nc23)C[C@@H]1O | ≤ 500 |
| NS(=O)(=O)OC[C@H]1C[C@@H](NC(=O)c2ccncc2)[C@H](O)[C@@H]1O | 500 to 10000 |
| CO[C@H]1Cc2ccccc2[C@H]1Nc1cc(N[C@@H]2C[C@@H](COS(N)(=O)=O)[C@@H](O)C2)ncn1 | ≤ 500 |
| NS(=O)(=O)OC[C@H]1C[C@@H](Nc2nc(N[C@H]3CCc4ccccc43)ncc2F)[C@H](O)[C@@H]1O | 500 to 10000 |
| NS(=O)(=O)OC[C@@H]1C[C@@H](Oc2ccnc(N[C@H]3CCc4ccccc43)c2)C[C@@H]1O | 500 to 10000 |
| NS(=O)(=O)OC[C@@H]1C[C@@H](Oc2ncnc3nc(-c4cnn(Cc5ccccc5)c4)[nH]c23)C[C@@H]1O | ≤ 500 |
| NS(=O)(=O)OC[C@@H]1C[C@@H](N2CCc3c(N[C@H]4CCc5ccccc54)ncnc32)C[C@@H]1O | ≤ 500 |
| NS(=O)(=O)OC[C@@H]1C[C@@H](Oc2cc(Cc3ccccc3)ncn2)C[C@@H]1O | 500 to 10000 |
| NS(=O)(=O)OC[C@@H]1C[C@@H](Oc2cc(OCc3cccc4ccccc34)ncn2)C[C@@H]1O | 500 to 10000 |
| COc1ccc2c(c1)[C@H](Nc1cc(O[C@@H]3C[C@@H](COS(N)(=O)=O)[C@@H](O)C3)ncn1)[C@H](OC)CC2 | 500 to 10000 |
| Cc1c(N[C@H]2CCc3ccccc32)ncnc1O[C@@H]1C[C@@H](COS(N)(=O)=O)[C@@H](O)C1 | > 10000 |

| SMILES | IC50 [nM] |
| --- | --- |
| CC1(C)C[C@H](Nc2cc(N[C@@H]3C[C@@H](COS(N)(=O)=O)[C@@H](O)C3)ncn2)c2ccccc21 | ≤ 500 |
| CC1(C)C[C@H](Nc2nccc(N[C@@H]3C[C@H](COS(N)(=O)=O)[C@@H](O)[C@H]3O)n2)c2ccccc21 | ≤ 500 |
| CN(C)C(=O)[C@H]1Cc2ccccc2[C@H]1Nc1cc(O[C@@H]2C[C@@H](COS(N)(=O)=O)[C@@H](O)C2)ncn1 | 500 to 10000 |
| NS(=O)(=O)OC[C@@H]1C[C@@H](Nc2ncnc3[nH]c(Cc4ccccc4)nc23)C[C@@H]1O | ≤ 500 |
| NS(=O)(=O)OC[C@@H]1C[C@@H](Oc2ncnc3nc(-c4c[nH]c5ccccc45)[nH]c23)C[C@@H]1O | ≤ 500 |
| NS(=O)(=O)OC[C@@H]1C[C@@H](Oc2ncnc3nc(-c4ccc(N5CCCC5)c5ccccc45)[nH]c23)C[C@@H]1O | ≤ 500 |
| NS(=O)(=O)OC[C@H]1C[C@@H](Nc2cc(Nc3cccc4c3CCCC4)ncn2)[C@H](O)[C@@H]1O | ≤ 500 |
| CO[C@H]1Cc2ccccc2[C@H]1Nc1ncnc(N[C@@H]2C[C@@H](COS(N)(=O)=O)[C@@H](O)C2)n1 | ≤ 500 |
| OC[C@@H]1C[C@@H](Nc2ncnc3[nH]c(-c4cccc5c4OCCO5)nc23)C[C@@H]1O | 500 to 10000 |
| CO[C@H]1Cc2ccccc2[C@H]1Oc1cc(O[C@@H]2C[C@@H](COS(N)(=O)=O)[C@@H](O)C2)ncn1 | 500 to 10000 |
| CO[C@@H]1CC(C)(C)c2ccccc2[C@@H]1Nc1cc(O[C@@H]2C[C@@H](COS(N)(=O)=O)[C@@H](O)C2)ncn1 | ≤ 500 |
| NS(=O)(=O)OC[C@@H]1C[C@@H](Cc2cc(N[C@H]3CCc4ccccc43)ncn2)C[C@@H]1O | 500 to 10000 |
| NS(=O)(=O)OC[C@H]1C[C@@H](Nc2cc(N[C@H]3CCc4cc(F)c(F)cc43)ncn2)[C@H](O)[C@@H]1O | ≤ 500 |
| NS(=O)(=O)OC[C@@H]1C[C@@H](Nc2ncnc3[nH]c(-c4cccc5c4OCCO5)nc23)C[C@@H]1O | ≤ 500 |
| NS(=O)(=O)OC[C@H]1C[C@@H](NC(=O)c2cccnc2)[C@H](O)[C@@H]1O | 500 to 10000 |
| NS(=O)(=O)OC[C@H]1C[C@@H](Nc2cc(N[C@H]3CCCc4ccccc43)ncn2)[C@H](O)[C@@H]1O | ≤ 500 |
| NS(=O)(=O)OC[C@@H]1C[C@@H](Oc2ncnc3[nH]c(-c4ccccc4)nc23)C[C@@H]1O | ≤ 500 |
| CC1(C)C[C@H](Nc2ncnc(N[C@@H]3C[C@@H](COS(N)(=O)=O)[C@@H](O)C3)n2)c2ccccc21 | ≤ 500 |
| NS(=O)(=O)OC[C@@H]1C[C@@H](Nc2ncnc(N[C@H]3CCc4ccccc43)n2)C[C@@H]1O | ≤ 500 |
| NS(=O)(=O)OCC1C[C@@H](Nc2ncnc3[nH]c(C4CCCc5ccccc54)nc23)C[C@@H]1O (single isomer, unassigned) | ≤ 500 |
| NS(=O)(=O)OC[C@@H]1C[C@@H](Nc2ncnc3[nH]c(-c4cccc5ccccc45)cc23)C[C@@H]1O | ≤ 500 |
| Cc1nc(NCc2ccccc2)cc(N[C@@H]2C[C@H](COS(N)(=O)=O)[C@@H](O)[C@H]2O)n1 | > 10000 |

| SMILES | IC50 [nM] |
| --- | --- |
| CC1(C)C[C@H](Nc2cc(O[C@@H]3C[C@@H](COS(N)(=O)=O)[C@@H](O)C3)ncn2)c2ccccc21 | ≤ 500 |
| CO[C@@H]1c2ccccc2C[C@@H]1Oc1cc(O[C@@H]2C[C@@H](COS(N)(=O)=O)[C@@H](O)C2)ncn1 | 500 to 10000 |
| NS(=O)(=O)OC[C@H]1C[C@@H](Nc2cc(N[C@@H]3CCc4ccccc43)ncn2)[C@H](O)[C@@H]1O | ≤ 500 |
| CO[C@H]1CCc2ccccc2[C@H]1Nc1cc(O[C@@H]2C[C@@H](COS(N)(=O)=O)[C@@H](O)C2)ncn1 | ≤ 500 |
| Cn1c(-c2ccccc2)nc2ncnc(N[C@@H]3C[C@@H](COS(N)(=O)=O)[C@@H](O)C3)c21 | 500 to 10000 |
| NS(=O)(=O)OC[C@@H]1C[C@@H](Nc2ncnc3[nH]c(-c4ccccc4OCc4ccccc4)nc23)C[C@@H]1O | ≤ 500 |
| COc1cccc(OC)c1-c1nc2c(N[C@@H]3C[C@@H](COS(N)(=O)=O)[C@@H](O)C3)ncnc2[nH]1 | ≤ 500 |
| CN(C)c1ccc(-c2nc3c(N[C@@H]4C[C@@H](COS(N)(=O)=O)[C@@H](O)C4)ncnc3[nH]2)c2ccccc12 | ≤ 500 |
| NS(=O)(=O)OC[C@@H]1C[C@@H](Oc2ncnc3c2ncn3Cc2ccccc2)C[C@@H]1O | 500 to 10000 |
| C[C@H]1Cc2ccccc2[C@H]1Nc1cc(O[C@@H]2C[C@@H](COS(N)(=O)=O)[C@@H](O)C2)ncn1 | ≤ 500 |
| NS(=O)(=O)OC[C@@H]1C[C@@H](Nc2ncnc3[nH]c(-c4ccccc4)nc23)C[C@@H]1O | ≤ 500 |
| NS(=O)(=O)OC[C@H]1C[C@@H](Nc2ccnc(NCC3CCCCC3)n2)[C@H](O)[C@@H]1O | 500 to 10000 |
| NS(=O)(=O)OC[C@@H]1C[C@@H](Nc2ncnc3[nH]c(-c4ccccc4-c4ccccc4)nc23)C[C@@H]1O | 500 to 10000 |
| NS(=O)(=O)OC[C@H]1C[C@@H](Nc2cc(N[C@H]3CCc4cc(Cl)ccc43)ncn2)[C@H](O)[C@@H]1O | ≤ 500 |
| OC[C@@H]1C[C@@H](Nc2ncnc3[nH]c(-c4cccc5c4CCCC5)nc23)C[C@@H]1O | 500 to 10000 |
| NS(=O)(=O)OC[C@@H]1C[C@@H](Oc2ncnc3nc(-c4ccnc5cc(Cl)ccc45)[nH]c23)C[C@@H]1O | ≤ 500 |
| CC(C)(C)c1nc2c(N[C@@H]3C[C@@H](COS(N)(=O)=O)[C@@H](O)C3)ncnc2[nH]1 | ≤ 500 |
| NS(=O)(=O)OC[C@@H]1C[C@@H](O)[C@H](Nc2cc(N[C@H]3CCc4ccccc43)ncn2)C1 | > 10000 |
| CN(c1cc(N[C@H]2CCc3ccccc32)ncn1)[C@@H]1C[C@H](COS(N)(=O)=O)[C@@H](O)[C@H]1O | ≤ 500 |
| CO[C@@H]1Cc2ccccc2[C@@H]1Oc1cc(O[C@@H]2C[C@@H](COS(N)(=O)=O)[C@@H](O)C2)ncn1 | 500 to 10000 |
| NS(=O)(=O)OC[C@@H]1C[C@@H](Oc2cc(OCc3ccc4ccccc4c3)ncn2)C[C@@H]1O | 500 to 10000 |
| CO[C@@H]1CCc2ccccc2[C@@H]1Nc1cc(O[C@@H]2C[C@@H](COS(N)(=O)=O)[C@@H](O)C2)ncn1 | ≤ 500 |
